According to US6063777A, “Iminochlorinaspartic acid derivatives” (Wyeth Lederle Japan, Ltd., priority 1996, dated 2000):
Converted amounts (≈) assume the structure as drawn.

Experiments:
eyeball tissues = experiment: Time course distribution of the compound in eyeball tissues by fluorescence microscopy; format: in vivo, rats (Long Evance Rats); conditions: 16 mg/kg tail vein
Procedure: Photocoagulation was induced in rats (Long Evance Rats weighing 200-300 g) by Argon green laser irradiation (irradiation diameter: 100 μm, 140 mW, 0.1 sec) near the retinal papilla on funduc oculi. Ten days after photocoagulation, fundus photographs and fluorescein angiographs were taken and the animals showing development of choroidal neovascularization were used for experiments at the 11th day.
The compound of the present invention was administered via the tail vein at a dose of 16 mg/kg. After administration, time course distribution of the compound in the eyeball tissues was observed by fluorescence microscopy.

[1] = Stability in vivo and in vitro
HeLa cells = experiment: HeLa cell survival after diode laser (670 nm) irradiation, MTS-PMS reagent; format: cell-based
Procedure: HeLa cells were seeded in wells of a 96-well plate each containing 100 μl of a culture medium at 5×10^3 /well, and incubated at 37° C. overnight. In each well, the culture medium was removed, and 100 μl of a solution containing sodium salt of either of compound (I) or compound (II) in concentrations of 0, 6.25, 12.5, 25, 50 and 100 μM/ml was added (3 wells for each group of the concentrations) and incubated at 37° C. at for 6 hrs. Each well was washed with PBS(-) once, and then 100 μl of a fresh medium was added. The wells were irradiated using a diode laser (670 nm) under the conditions of 0.44W of laser intensity, 0.785 cm^2 of irradiation area (diameter: 1 cm) and 25 J/cm^2 of laser energy. After the irradiation, each well was incubated at 37° C. overnight and washed with PBS(-) once, then 100 μl of a fresh medium was added. To each well was added 20 μl of MTS-PMS reagent, and the well was further incubated at 37° C. for 2-4 hrs. The absorbance of each well at 492 nm was measured using a microplate reader. The cell survival rate at each of the above mentioned concentrations of the test compound was calculated considering the value for the well of 0 μM/ml of the test compound as 100%.

Water solubility = format: physicochemical
[2] = Preliminary experiments: blood half-life after intravenous administration; format: in vivo; conditions: rats and rabbits
albumin = experiment: Albumin test (change in UV absorption spectrum in mixture with albumin); format: binding
Source text: When compound (I) was examined by albumin test [that is, a convenient test method for evaluating the affinity to cancerous tissues, in which a chlorin derivative is examined on the change in ultraviolet (UV) absorption spectrum in a mixture form with albumin and in which one of the present inventors has found a certain rule] and dancyl methionine test [that is, a convenient test method for evaluating the strength of the photoreactivity by thin layer chromatography (TLC) or high performance liquid chromatography (HPLC)]

[3] = Absorption wavelength / molar absorption coefficient; format: physicochemical

## C=Cc1c(C)c2cc3nc(cc4[nH]c(cc5nc(cc1[nH]2)C(C)=C5CCC(=O)NC(CC(=O)O)C(=O)O)c(CCC(=O)NC(CC(=O)O)C(=O)O)c4C)C(C)(O)C3=CC=NO (stereo not shown) [Compound (I)]
Eyeball tissues; 5 minutes after administration
  fluorescence in choroid, lumens of choriocapillaris, choroidal arteries and veins: fluorescence was observed in the lumens of the choriocapillaris, choroidal arteries and veins
  fluorescence in choroidal artery wall: also observed in the choroidal artery wall
  fluorescence in retina, artery wall: prominent fluorescence was observed in the artery wall
  fluorescence in retina, lumens of the blood capillaries: weak fluorescence was observed in the lumens of the blood capillaries
  fluorescence in the entire choroidal neovascular tissues: weak fluorescence
  fluorescence intensity, neoplastic vessels versus surrounding tissues: did not clearly differ between the neoplastic vessels and the surrounding tissues
Eyeball tissues; 30 minutes to 1 hour after administration
  fluorescence from the whole neoplastic vessels: fluorescence from the whole neoplastic vessels increased
Eyeball tissues; 2 hours after administration
  fluorescence in choroidal artery wall: prominent fluorescence was observed in the choroidal artery wall
  fluorescence in lumens of large choroidal vessels and retinal artery wall: diminished
  fluorescence in the choriocapillaris veins: disappeared
Eyeball tissues; 4 hours after administration
  fluorescence in choroidal artery wall and retinal vessels: gradually diminished
  fluorescence in the choroidal neoplastic vessels: persisted
Eyeball tissues; 24 hours after administration
  fluorescence in choroidal neoplastic vessels and other vessels: all disappeared
[1]
  stability in vivo and in vitro: high stability in vivo, as well as in vitro
HeLa cells
  cell destructing effect induced by a photosensitizing reaction: strong cell destructing effect induced by a photosensitizing reaction
HeLa cells; Homo sapiens, HeLa, light or radiation study, 6.25 μM, sodium salt, 6 hrs, 670 nm, 25 J/cm^2, read-out: Cell Survival Rate
  viability at 6.25 µM: 43%
HeLa cells; Homo sapiens, HeLa, light or radiation study, 12.5 μM, sodium salt, 6 hrs, 670 nm, 25 J/cm^2, read-out: Cell Survival Rate
  viability at 12.5 µM: 19%
HeLa cells; Homo sapiens, HeLa, light or radiation study, 25 μM, sodium salt, 6 hrs, 670 nm, 25 J/cm^2, read-out: Cell Survival Rate
  viability at 25 µM: 13%
HeLa cells; Homo sapiens, HeLa, light or radiation study, 50 μM, sodium salt, 6 hrs, 670 nm, 25 J/cm^2, read-out: Cell Survival Rate
  viability at 50 µM: 10%
HeLa cells; Homo sapiens, HeLa, light or radiation study, 100 μM, sodium salt, 6 hrs, 670 nm, 25 J/cm^2, read-out: Cell Survival Rate
  viability at 100 µM: 10%
HeLa cells; compared with position isomer
  cell killing effect against tumor cells: remarkably higher cell killing effect against tumor cells compared with the position isomer
Water solubility
  water solubility: good water solubility
Water solubility; water, aqueous solution, read-out: high concentration solution (water solubility)
  solubility: 50 mg/mL (≈ 59.5 mM)
[2]; after 24 hours, intravenous
  compound in blood: undetectable in blood after 24 hours
[2]; blood, intravenous administration
  half-life: 30 min
albumin
  affinity to albumin: good affinity to albumin
  transferability to cancerous tissues (albumin test): excellent transferability to cancerous tissues
[3]
  longest wavelength absorption end: ≥ 670 nm
